Numbered stars: 1 amine (or outer) side, 2 acyl side, 3 side chain; on linkers, the order of the positions; unused ones are H or OH. Bridge positions count the residues as written; N and C are the ends. Peptide text beside a SMILES is read from it. * marks the point of attachment. C20 diacid = O=C(O)CCCCCCCCCCCCCCCCCCC(=O)*; γGlu = O=C(O)[C@H](CCC(=O)[*:2])N[*:1]
Assays:
[1] = biological target: T1, rat amylin receptor (rat calcitonin receptor + rat RAMP 3) (Rattus norvegicus, UniProt P32214+Q9JJ73); assay: ASSAY (VI) binding to the rat amylin receptor; details: Table 7
T1 construct: expressed in transfected cells; host or cells: BHK tk'ts 13 (transient, FuGENE 6), membranes
T1 sequence (P32214 25-479 isoform P32214-2 limits assumed): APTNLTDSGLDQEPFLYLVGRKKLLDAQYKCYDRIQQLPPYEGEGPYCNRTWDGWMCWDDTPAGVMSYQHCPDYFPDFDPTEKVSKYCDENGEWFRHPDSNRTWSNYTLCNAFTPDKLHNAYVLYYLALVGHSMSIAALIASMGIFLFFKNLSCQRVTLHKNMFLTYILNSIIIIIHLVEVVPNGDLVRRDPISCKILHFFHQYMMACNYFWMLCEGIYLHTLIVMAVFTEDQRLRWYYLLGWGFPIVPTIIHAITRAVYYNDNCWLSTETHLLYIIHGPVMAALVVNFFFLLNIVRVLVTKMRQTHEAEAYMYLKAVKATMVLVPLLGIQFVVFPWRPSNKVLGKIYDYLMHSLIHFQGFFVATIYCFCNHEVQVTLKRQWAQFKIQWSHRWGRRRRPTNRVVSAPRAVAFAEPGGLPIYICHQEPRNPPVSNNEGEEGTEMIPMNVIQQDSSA
T1 sequence (Q9JJ73 23-147 partner): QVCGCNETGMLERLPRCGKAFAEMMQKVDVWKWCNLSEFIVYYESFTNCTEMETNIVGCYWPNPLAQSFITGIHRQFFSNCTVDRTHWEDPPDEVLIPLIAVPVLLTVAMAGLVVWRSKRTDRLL
Experimental: Assay (VI)—Determination of the Binding to the Rat Amylin Receptor […] The BHK tk′ts 13 cells were transiently transfected with rat calcitonin receptor using FuGENE® 6 (Roche), according to the manufacturer's recommendations. […] Approximately 48 hours after transfection, the cells were harvested and membranes were prepared.

[2] = biological target: T2, human amylin 3(a) receptor (human calcitonin receptor + RAMP-3) in BHK570 cells (Homo sapiens, UniProt O60896+P30988); assay: ASSAY (II)a functional assay, human amylin receptor (CRE luciferase); type: cell-based
T2 construct: expressed in transfected cells
Text: 1. Luciferase Assay Outline
Activation of calcitonin and amylin (coexpression of calcitonin receptor and receptor activity modifying proteins (RAMP)) receptors lead to increased intracellular concentrations of cAMP. Consequently, transcription is activated by promoters containing multiple copies of the cAMP response element (CRE). It is thus possible to measure amylin activity by the use of a CRE luciferase reporter gene introduced into BHK cells also expressing calcitonin or amylin receptors.
2. Construction of Calcitonin (a)- and Amylin 3(a)-Receptor/CRE-Luc Cell Line.
The cell line was further transfected with RAMP-3, using standard methods. This turns the calcitonin receptor into an amylin 3(a) receptor. Methotrexate, Neomycin, and Hygromycin are selection markers for luciferase, the calcitonin receptor, and RAMP-3, respectively.
To perform activity assays, BHK calcitonin (a) receptor- or amylin 3(a)-receptor/CRE-luc cells were seeded in white 96 well culture plates at a density of about 20.000 cells/well. […] After incubation overnight at 37° C. and 5% CO2, the growth medium was replaced by 50 μl/well assay medium (DMEM (without phenol red), Glutamax™, 10% FBS, and 10 mM Hepes, pH 7.4). Further, 50 μl/well of standard or sample in assay buffer were added. After 3 hours incubation at 37° C. and 5% CO2, the assay medium with standard or sample were removed and replaced by 100 μl/well PBS. Further, 100 μl/well LucLite™ was added. The plates were sealed and incubated at room temperature for 30 minutes. Finally, luminescence was measured on a TopCounter (Packard) in SPC (single photon counting) mode.

[3] = biological target: T3, human amylin receptor (membranes from Amylin 3(a)/CRE-luc cells) (Homo sapiens, UniProt O60896+P30988); assay: ASSAY (V) binding to the human amylin receptor (SPA, 125I-rat amylin);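 further: competition binding of cell membranes (35 ng/µL) mixed with SPA beads in 384-well plates at 40 µL total volume, read by scintillation counting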
T3 construct: expressed in transfected cells
T3 sequence (P30988 25-474): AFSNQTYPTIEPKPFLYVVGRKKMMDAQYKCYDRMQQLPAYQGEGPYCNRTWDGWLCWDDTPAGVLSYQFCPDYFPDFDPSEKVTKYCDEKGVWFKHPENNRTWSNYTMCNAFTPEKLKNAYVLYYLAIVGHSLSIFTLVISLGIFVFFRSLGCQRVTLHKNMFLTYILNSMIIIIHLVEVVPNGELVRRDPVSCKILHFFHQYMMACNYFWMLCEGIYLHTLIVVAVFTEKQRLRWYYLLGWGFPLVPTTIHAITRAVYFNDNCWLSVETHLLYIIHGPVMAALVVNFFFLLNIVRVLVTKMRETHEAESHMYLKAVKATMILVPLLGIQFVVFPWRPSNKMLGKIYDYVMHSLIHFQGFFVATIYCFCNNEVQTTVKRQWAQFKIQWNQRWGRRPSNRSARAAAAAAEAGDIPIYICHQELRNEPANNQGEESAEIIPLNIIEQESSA
T3 sequence (O60896 24-148 partner): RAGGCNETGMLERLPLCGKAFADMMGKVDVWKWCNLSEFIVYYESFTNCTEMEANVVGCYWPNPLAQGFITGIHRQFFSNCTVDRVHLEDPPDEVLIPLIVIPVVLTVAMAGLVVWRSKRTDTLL

How did the IC50 ([1]; binding to rat amylin receptor, read-out: rAmylin-R bind IC50) turn out when `CC(C)C[C@H](NC(=O)[C@H](CCCNC(=N)N)NC(=O)[C@H](CCC(N)=O)NC(=O)[C@@H](NC(=O)[C@H](C)NC(=O)[C@@H]1CSSC[C@H](NC(=O)[C@H](CCCCN)NC(=O)CC[C@H](NC(=O)CCCCCCCCCCCCCCCCCCC(=O)O)C(=O)O)C(=O)N[C@@H](CC(N)=O)C(=O)N[C@@H]([C@@H](C)O)C(=O)N[C@@H](C)C(=O)N[C@@H]([C@@H](C)O)C(=O)N1)[C@@H](C)O)C(=O)N[C@@H](C)C(=O)N[C@@H](CCC(=O)O)C(=O)N[C@@H](Cc1ccccc1)C(=O)N[C@@H](CC(C)C)C(=O)N[C@@H](CCCNC(=N)N)C(=O)N[C@@H](Cc1c[nH]cn1)C(=O)N[C@@H](CO)C(=O)N[C@@H](CO)C(=O)N1CCC[C@H]1C(=O)N[C@@H](CC(N)=O)C(=O)N[C@@H](Cc1ccccc1)C(=O)NCC(=O)N[C@@H](C)C(=O)N1CCC[C@H]1C(=O)N[C@@H](CC(C)C)C(=O)N[C@@H](CO)C(=O)N[C@@H](CO)C(=O)N[C@H](C(=O)N[C@@H](CC(N)=O)C(=O)N[C@H](C(=O)NCC(=O)N[C@@H](CO)C(=O)N[C@@H](CC(N)=O)C(=O)N[C@H](C(=O)N1CCC[C@H]1C(N)=O)[C@@H](C)O)C(C)C)[C@@H](C)O` [Example 5] ({C20 diacid-γGlu}-KCNTATCATQRLAEFLRHSSPNFGAPLSSTNVGSNTP-NH2; disulfide 2-7) was run?
The IC50 was 1.3 nM.

What about the “Ratio rCT/rAmylin binding” value ([1]; rat binding selectivity, rCTR IC50 / rAmylin-R IC50) of the same molecule?
Its value is 3.6.

And the “Ratio hCT/hAmylin funct.” value ([2]; hCTR funct. EC50 / hAmylin-R funct. EC50)?
Its value is 1.0.

What about the “Ratio hCT/hAmylin funct.” value ([2]; hCTR funct. EC50 over hAmylin-R funct. EC50) of the same molecule?
Its value is 1.0.

What about the “Ratio hCT/hAmylin funct.” value ([2]; human functional selectivity: hCTR funct. EC50 / hAmylin-R funct. EC50) of the same molecule?
The value was 1.0.

And the “Ratio hCT/hAmylin binding” value ([3]; Table 5, selectivity, hCTR bind IC50 / hAmylin-R bind IC50)?
Its value is 1.4.

What about the “Ratio hCT/hAmylin binding” value ([3]; Table 7, human binding selectivity, included for comparison) of the same molecule?
The value was 1.4.

Reference: US9023789B2, “Amylin analogs and pharmaceutical compositions thereof” (Novo Nordisk A/S, priority 2012, dated 2015)
